Results taken from US8192962B2, “Processes for detecting toxic substances” (Daikin Industries, Ltd., priority 2001, dated 2012).

Test system: Metabolism protein genes
Assay: DNA chip mRNA expression in yeast, metabolism protein genes (Table 7)
Assay type: cell-based, Saccharomyces cerevisiae S288C
Summary of the method: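 Value is the scanned fluorescence intensity ratio of exposed versus chemical-free cells. Log-phase S288C yeast in YPD at 25° C. received one toxic substance for two hours, dosed to slow growth without killing; Cy3/Cy5-labeled cDNA from oligo-dT-purified mRNA was hybridized to a whole-genome chip at 65° C.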

CCCCCCCCCCCCOS(=O)(=O)[O-].[Na+] [(18), sodium lauryl sulfate]
The level of expressed mRNA in the presence of chemical substance/The level of expressed mRNA in the absence of chemical substance (yeast gene YAL012W): 0.8 | The level of expressed mRNA in the presence of chemical substance/The level of expressed mRNA in the absence of chemical substance (yeast gene YAL038W): 1.0 | level of expressed mRNA in the presence/in the absence of chemical substance (yeast gene YBR003W): 1.3 | level of expressed mRNA in the presence/in the absence of chemical substance (yeast gene YBR011C): 1.1 | level of expressed mRNA in the presence/in the absence of chemical substance (yeast gene YBR020W): 0.9 | The level of expressed mRNA in the presence of chemical substance/The level of expressed mRNA in the absence of chemical substance (yeast gene YBR023C): 0.9 | The level of expressed mRNA in the presence of chemical substance/The level of expressed mRNA in the absence of chemical substance (yeast gene YBR029C): 0.8 | The level of expressed mRNA in the presence of chemical substance/The level of expressed mRNA in the absence of chemical substance (yeast gene YBR183W): 2.4 | The level of expressed mRNA in the presence of chemical substance/The level of expressed mRNA in the absence of chemical substance (yeast gene YBR222C): 0.9 | The level of expressed mRNA in the presence of chemical substance/The level of expressed mRNA in the absence of chemical substance (yeast gene YBR256C): 3.3 | The level of expressed mRNA in the presence of chemical substance/The level of expressed mRNA in the absence of chemical substance (yeast gene YCL009C): 0.8 | The level of expressed mRNA in the presence of chemical substance/The level of expressed mRNA in the absence of chemical substance (yeast gene YCL064C): 0.3 | level of expressed mRNA in the presence/in the absence of chemical substance (yeast gene YCR010C): 1.5 | level of expressed mRNA in the presence/in the absence of chemical substance (yeast gene YCR034W): 0.7 | The level of expressed mRNA in the presence of chemical substance/The level of expressed mRNA in the absence of chemical substance (yeast gene YCR048W): 0.8 | The level of expressed mRNA in the presence of chemical substance/The level of expressed mRNA in the absence of chemical substance (yeast gene YCR098C): 1.6 | The level of expressed mRNA in the presence of chemical substance/The level of expressed mRNA in the absence of chemical substance (yeast gene YDL174C): 4.0 | The level of expressed mRNA in the presence of chemical substance/The level of expressed mRNA in the absence of chemical substance (yeast gene YDR019C): 1.6 | level of expressed mRNA in the presence/in the absence of chemical substance (yeast gene YDR050C): 2.3 | level of expressed mRNA in the presence/in the absence of chemical substance (yeast gene YDR073W): 2.3 | level of expressed mRNA in the presence/in the absence of chemical substance (yeast gene YDR123C): 1.0 | level of expressed mRNA in the presence/in the absence of chemical substance (yeast gene YDR178W): 2.3 | level of expressed mRNA in the presence/in the absence of chemical substance (yeast gene YDR277C): 1.7 | level of expressed mRNA in the presence/in the absence of chemical substance (yeast gene YDR284C): 1.5 | level of expressed mRNA in the presence/in the absence of chemical substance (yeast gene YDR345C): 1.8 | The level of expressed mRNA in the presence of chemical substance/The level of expressed mRNA in the absence of chemical substance (yeast gene YDR380W): 0.8 | level of expressed mRNA in the presence/in the absence of chemical substance (yeast gene YDR400W): 0.8 | level of expressed mRNA in the presence/in the absence of chemical substance (yeast gene YDR408C): 1.1 | level of expressed mRNA in the presence/in the absence of chemical substance (yeast gene YDR483W): 1.4 | The level of expressed mRNA in the presence of chemical substance/The level of expressed mRNA in the absence of chemical substance (yeast gene YDR497C): 1.8 | The level of expressed mRNA in the presence of chemical substance/The level of expressed mRNA in the absence of chemical substance (yeast gene YDR502C): 0.9 | The level of expressed mRNA in the presence of chemical substance/The level of expressed mRNA in the absence of chemical substance (yeast gene YDR516C): 1.2 | level of expressed mRNA in the presence/in the absence of chemical substance (yeast gene YEL063C): 0.7 | level of expressed mRNA in the presence/in the absence of chemical substance (yeast gene YER015W): 2.6 | The level of expressed mRNA in the presence of chemical substance/The level of expressed mRNA in the absence of chemical substance (yeast gene YER026C): 3.2 | The level of expressed mRNA in the presence of chemical substance/The level of expressed mRNA in the absence of chemical substance (yeast gene YER053C): 2.3 | The level of expressed mRNA in the presence of chemical substance/The level of expressed mRNA in the absence of chemical substance (yeast gene YER069W): 0.9 | level of expressed mRNA in the presence/in the absence of chemical substance (yeast gene YER081W): 1.7 | The level of expressed mRNA in the presence of chemical substance/The level of expressed mRNA in the absence of chemical substance (yeast gene YER096W): 1.2 | level of expressed mRNA in the presence/in the absence of chemical substance (yeast gene YER120W): 1.0 | The level of expressed mRNA in the presence of chemical substance/The level of expressed mRNA in the absence of chemical substance (yeast gene YER178W): 0.9 | level of expressed mRNA in the presence/in the absence of chemical substance (yeast gene YFL011W): 1.0 | The level of expressed mRNA in the presence of chemical substance/The level of expressed mRNA in the absence of chemical substance (yeast gene YFL014W): 8.8 | The level of expressed mRNA in the presence of chemical substance/The level of expressed mRNA in the absence of chemical substance (yeast gene YFL030W): 0.8 | The level of expressed mRNA in the presence of chemical substance/The level of expressed mRNA in the absence of chemical substance (yeast gene YFL031W): 1.1 | The level of expressed mRNA in the presence of chemical substance/The level of expressed mRNA in the absence of chemical substance (yeast gene YFL056C): 1.1 | The level of expressed mRNA in the presence of chemical substance/The level of expressed mRNA in the absence of chemical substance (yeast gene YFL057C): 1.3 | The level of expressed mRNA in the presence of chemical substance/The level of expressed mRNA in the absence of chemical substance (yeast gene YFR047C): 1.6 | level of expressed mRNA in the presence/in the absence of chemical substance (yeast gene YGL012W): 1.1 | The level of expressed mRNA in the presence of chemical substance/The level of expressed mRNA in the absence of chemical substance (yeast gene YGL022W): 0.7 | level of expressed mRNA in the presence/in the absence of chemical substance (yeast gene YGL115W): 1.2 | The level of expressed mRNA in the presence of chemical substance/The level of expressed mRNA in the absence of chemical substance (yeast gene YGL126W): 0.9 | level of expressed mRNA in the presence/in the absence of chemical substance (yeast gene YGL205W): 9.1 | The level of expressed mRNA in the presence of chemical substance/The level of expressed mRNA in the absence of chemical substance (yeast gene YGL209W): 1.5 | The level of expressed mRNA in the presence of chemical substance/The level of expressed mRNA in the absence of chemical substance (yeast gene YGL248W): 1.2 | The level of expressed mRNA in the presence of chemical substance/The level of expressed mRNA in the absence of chemical substance (yeast gene YGR037C): 2.0 | The level of expressed mRNA in the presence of chemical substance/The level of expressed mRNA in the absence of chemical substance (yeast gene YGR055W): 0.7 | level of expressed mRNA in the presence/in the absence of chemical substance (yeast gene YGR096W): 1.0 | level of expressed mRNA in the presence/in the absence of chemical substance (yeast gene YGR191W): 0.8 | The level of expressed mRNA in the presence of chemical substance/The level of expressed mRNA in the absence of chemical substance (yeast gene YGR194C): 2.0 | level of expressed mRNA in the presence/in the absence of chemical substance (yeast gene YGR204W): 0.7 | The level of expressed mRNA in the presence of chemical substance/The level of expressed mRNA in the absence of chemical substance (yeast gene YGR256W): 0.8 | The level of expressed mRNA in the presence of chemical substance/The level of expressed mRNA in the absence of chemical substance (yeast gene YGR282C): 1.5 | level of expressed mRNA in the presence/in the absence of chemical substance (yeast gene YGR288W): 1.3 | level of expressed mRNA in the presence/in the absence of chemical substance (yeast gene YHR025W): 0.6 | The level of expressed mRNA in the presence of chemical substance/The level of expressed mRNA in the absence of chemical substance (yeast gene YHR111W): 1.2 | level of expressed mRNA in the presence/in the absence of chemical substance (yeast gene YHR123W): 1.0 | The level of expressed mRNA in the presence of chemical substance/The level of expressed mRNA in the absence of chemical substance (yeast gene YHR137W): 1.3 | The level of expressed mRNA in the presence of chemical substance/The level of expressed mRNA in the absence of chemical substance (yeast gene YHR174W): 1.2 | The level of expressed mRNA in the presence of chemical substance/The level of expressed mRNA in the absence of chemical substance (yeast gene YHR176W): 1.6 | level of expressed mRNA in the presence/in the absence of chemical substance (yeast gene YHR210C): 1.2 | level of expressed mRNA in the presence/in the absence of chemical substance (yeast gene YIL006W): 0.9 | The level of expressed mRNA in the presence of chemical substance/The level of expressed mRNA in the absence of chemical substance (yeast gene YIL045W): 1.8 | The level of expressed mRNA in the presence of chemical substance/The level of expressed mRNA in the absence of chemical substance (yeast gene YIL107C): 2.0 | The level of expressed mRNA in the presence of chemical substance/The level of expressed mRNA in the absence of chemical substance (yeast gene YIL154C): 1.0 | The level of expressed mRNA in the presence of chemical substance/The level of expressed mRNA in the absence of chemical substance (yeast gene YIL155C): 1.4 | The level of expressed mRNA in the presence of chemical substance/The level of expressed mRNA in the absence of chemical substance (yeast gene YIL167W): 0.8 | The level of expressed mRNA in the presence of chemical substance/The level of expressed mRNA in the absence of chemical substance (yeast gene YIR034C): 1.0 | The level of expressed mRNA in the presence of chemical substance/The level of expressed mRNA in the absence of chemical substance (yeast gene YIR036C): 1.3 | The level of expressed mRNA in the presence of chemical substance/The level of expressed mRNA in the absence of chemical substance (yeast gene YJL031C): 1.9 | The level of expressed mRNA in the presence of chemical substance/The level of expressed mRNA in the absence of chemical substance (yeast gene YJL068C): 1.5 | The level of expressed mRNA in the presence of chemical substance/The level of expressed mRNA in the absence of chemical substance (yeast gene YJL088W): 0.9 | The level of expressed mRNA in the presence of chemical substance/The level of expressed mRNA in the absence of chemical substance (yeast gene YJL099W): 1.6 | level of expressed mRNA in the presence/in the absence of chemical substance (yeast gene YJL121C): 1.0 | The level of expressed mRNA in the presence of chemical substance/The level of expressed mRNA in the absence of chemical substance (yeast gene YJL155C): 3.1 | level of expressed mRNA in the presence/in the absence of chemical substance (yeast gene YJL167W): 2.1 | The level of expressed mRNA in the presence of chemical substance/The level of expressed mRNA in the absence of chemical substance (yeast gene YJL172W): 1.8 | level of expressed mRNA in the presence/in the absence of chemical substance (yeast gene YJL216C): 2.0 | The level of expressed mRNA in the presence of chemical substance/The level of expressed mRNA in the absence of chemical substance (yeast gene YJL219W): 1.2 | level of expressed mRNA in the presence/in the absence of chemical substance (yeast gene YJR077C): 0.8 | The level of expressed mRNA in the presence of chemical substance/The level of expressed mRNA in the absence of chemical substance (yeast gene YJR137C): 0.8 | level of expressed mRNA in the presence/in the absence of chemical substance (yeast gene YJR143C): 0.8 | The level of expressed mRNA in the presence of chemical substance/The level of expressed mRNA in the absence of chemical substance (yeast gene YJR148W): 1.7 | The level of expressed mRNA in the presence of chemical substance/The level of expressed mRNA in the absence of chemical substance (yeast gene YJR155W): 1.4
